This assay has as its target T1, CK1α (Homo sapiens, UniProt P48729+Q96SW2).
T1 construct: expressed in transfected cells
In words: CK1α ePL degradation assay in MDS-L cells. It is filed as cell-based. The note with it: MDS-L cells expressing ePL-tagged CK1α; for DC50: concentration giving 50% CK1α degradation vs DMSO control; for Y: lowest measured CK1α level normalized to DMSO control. The procedure, abridged:
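Degradation efficiency is reported as Y value, the minimum CK1α level (percent of DMSO control) across doses. Readout used InCELL Hunter luminescent detection after MDS-L cell exposure at 37° C for stated times, doses 10 μM down to 0.0005 μM in 3-fold steps.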

Bounds are passed on as bounds.

T1 sequence (P48729 whole entry): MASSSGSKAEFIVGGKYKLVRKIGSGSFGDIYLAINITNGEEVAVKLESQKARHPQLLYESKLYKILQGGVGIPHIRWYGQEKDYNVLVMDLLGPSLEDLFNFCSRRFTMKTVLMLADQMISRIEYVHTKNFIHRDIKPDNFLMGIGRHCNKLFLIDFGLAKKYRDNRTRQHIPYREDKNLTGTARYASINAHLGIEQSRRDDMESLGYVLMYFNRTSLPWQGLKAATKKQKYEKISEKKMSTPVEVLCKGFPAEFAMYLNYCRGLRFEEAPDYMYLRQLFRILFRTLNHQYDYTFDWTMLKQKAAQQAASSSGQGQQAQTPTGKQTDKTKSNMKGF
T1 sequence (Q96SW2 whole entry): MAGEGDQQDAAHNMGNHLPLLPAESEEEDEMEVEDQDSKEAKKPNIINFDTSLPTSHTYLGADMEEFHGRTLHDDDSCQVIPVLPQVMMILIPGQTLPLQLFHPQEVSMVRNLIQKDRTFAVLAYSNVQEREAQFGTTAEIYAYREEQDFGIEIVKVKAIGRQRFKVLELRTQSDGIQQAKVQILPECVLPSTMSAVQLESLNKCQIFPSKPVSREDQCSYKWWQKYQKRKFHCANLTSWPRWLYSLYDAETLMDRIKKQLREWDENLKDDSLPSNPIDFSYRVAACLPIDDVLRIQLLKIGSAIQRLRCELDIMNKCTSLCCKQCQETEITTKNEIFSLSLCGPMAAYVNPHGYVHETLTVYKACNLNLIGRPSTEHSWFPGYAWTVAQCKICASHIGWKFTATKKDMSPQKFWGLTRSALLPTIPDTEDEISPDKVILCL
T1 sequence (Q16531 whole entry partner): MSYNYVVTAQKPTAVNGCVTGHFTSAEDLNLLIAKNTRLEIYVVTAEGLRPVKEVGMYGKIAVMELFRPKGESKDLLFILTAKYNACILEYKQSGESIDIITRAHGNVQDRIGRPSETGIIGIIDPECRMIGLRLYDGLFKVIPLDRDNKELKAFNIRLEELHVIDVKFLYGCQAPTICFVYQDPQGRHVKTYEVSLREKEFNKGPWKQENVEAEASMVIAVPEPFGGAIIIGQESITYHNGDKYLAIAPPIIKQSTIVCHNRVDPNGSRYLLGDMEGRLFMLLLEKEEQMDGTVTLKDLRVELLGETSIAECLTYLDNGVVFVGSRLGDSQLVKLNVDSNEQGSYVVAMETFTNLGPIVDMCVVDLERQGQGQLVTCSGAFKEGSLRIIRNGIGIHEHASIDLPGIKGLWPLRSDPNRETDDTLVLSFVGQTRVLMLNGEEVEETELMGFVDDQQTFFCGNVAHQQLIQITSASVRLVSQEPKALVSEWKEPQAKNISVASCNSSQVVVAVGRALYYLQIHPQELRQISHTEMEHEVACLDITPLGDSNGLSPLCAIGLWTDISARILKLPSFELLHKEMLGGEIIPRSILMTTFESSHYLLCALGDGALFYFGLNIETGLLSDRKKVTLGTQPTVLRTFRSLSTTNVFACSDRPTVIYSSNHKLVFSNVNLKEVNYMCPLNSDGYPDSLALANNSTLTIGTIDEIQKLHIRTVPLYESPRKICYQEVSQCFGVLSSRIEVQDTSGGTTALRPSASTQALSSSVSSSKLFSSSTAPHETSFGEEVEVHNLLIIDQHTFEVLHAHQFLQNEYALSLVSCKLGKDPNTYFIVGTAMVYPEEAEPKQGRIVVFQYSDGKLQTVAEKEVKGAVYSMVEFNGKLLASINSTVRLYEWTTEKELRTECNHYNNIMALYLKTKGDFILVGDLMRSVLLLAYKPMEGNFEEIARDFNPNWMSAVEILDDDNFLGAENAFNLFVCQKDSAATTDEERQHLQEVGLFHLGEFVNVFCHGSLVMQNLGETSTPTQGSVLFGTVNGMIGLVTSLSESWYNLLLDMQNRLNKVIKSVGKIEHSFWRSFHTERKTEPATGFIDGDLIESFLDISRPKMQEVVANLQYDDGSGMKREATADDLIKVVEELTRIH

Usually DC50 stands for the concentration giving 50% degradation. High values mean a less potent degrader, low ones a more potent degrader. With `O=C1CCC(N2Cc3c(ccc(C(=O)N[C@H](c4ccccc4OC4CC4)C(F)(F)F)c3F)C2=O)C(=O)N1` (stereo partly drawn) [Example 157, N-((R)-1-(2-cyclopropoxyphenyl)-2,2,2-trifluoroethyl)-2-(2,6-dioxopiperidin-3-yl)-4-fluoro-1-oxoisoindoline-5-carboxamide], the DC50 was below 100 nM and the Y result is “** (a Y value (shown as**) of 20%<Y≤35%)”.
As to `O=C1CCC(N2Cc3cc(C(=O)N[C@H](c4cccc(Oc5ccccc5)c4)C(F)(F)F)ccc3C2=O)C(=O)N1` (stereo partly drawn) [Example 158, 2-(2,6-dioxopiperidin-3-yl)-1-oxo-N-((R)-2,2,2-trifluoro-1-(3-phenoxyphenyl)ethyl)isoindoline-5-carboxamide], the 50% degradation concentration (DC50) was below 100 nM and the Y result is listed as “* (a Y value (shown as *) of 0<Y≤20%)”.
Take `O=C1CCC(N2Cc3cc(C(=O)N[C@H](c4ccccc4Oc4ccccc4)C(F)(F)F)ccc3C2=O)C(=O)N1` (stereo partly drawn) [Example 159, 2-(2,6-dioxopiperidin-3-yl)-1-oxo-N-((R)-2,2,2-trifluoro-1-(2-phenoxyphenyl)ethyl)isoindoline-5-carboxamide]: the 50% degradation concentration (DC50) is below 100 nM and the Y entry was “* (a Y value (shown as *) of 0<Y≤20%)”.
`O=C1CCC(N2Cc3cc(C(=O)N[C@H](c4cc(F)ccc4Cl)C(F)(F)F)ccc3C2=O)C(=O)N1` (stereo partly drawn) [Example 160, N-((R)-1-(2-chloro-5-fluorophenyl)-2,2,2-trifluoroethyl)-2-(2,6-dioxopiperidin-3-yl)-1-oxoisoindoline-5-carboxamide]: the DC50 was below 100 nM and the Y entry was “* (a Y value (shown as *) of 0<Y≤20%)”.
Take `O=C1CCC(N2Cc3cc(C(=O)N[C@H](c4ccccc4OC4CC4)C(F)(F)F)ccc3C2=O)C(=O)N1` (stereo partly drawn) [Example 161, N-((R)-1-(2-cyclopropoxyphenyl)-2,2,2-trifluoroethyl)-2-(2,6-dioxopiperidin-3-yl)-1-oxoisoindoline-5-carboxamide]: the DC50 is below 100 nM and the Y result is on record as “* (a Y value (shown as *) of 0<Y≤20%)”.
With `O=C1CCC(N2Cc3cc(C(=O)N[C@@H](CC(F)(F)F)c4cccc(F)c4)ccc3C2=O)C(=O)N1` (stereo partly drawn) [Example 162, 2-(2,6-dioxopiperidin-3-yl)-1-oxo-N-((S)-3,3,3-trifluoro-1-(3-fluorophenyl)propyl)isoindoline-5-carboxamide], the half-maximal degradation concentration (DC50) was 100 to 500 nM and the Y entry is “** (a Y value (shown as**) of 20%<Y≤35%)”.
In the case of `O=C1CCC(N2Cc3cc(C(=O)N[C@H](c4ccc(Cl)cc4Cl)C(F)(F)F)ccc3C2=O)C(=O)N1` (stereo partly drawn) [Example 163, N-((R)-1-(2,4-dichlorophenyl)-2,2,2-trifluoroethyl)-2-(2,6-dioxopiperidin-3-yl)-1-oxoisoindoline-5-carboxamide], the DC50 was below 100 nM and the Y entry is given as “* (a Y value (shown as *) of 0<Y≤20%)”.
For `O=C1CCC(N2Cc3c(ccc(C(=O)N[C@H](c4ccc(Cl)cc4Cl)C(F)(F)F)c3F)C2=O)C(=O)N1` (stereo partly drawn) [Example 164, N-((R)-1-(2,4-dichlorophenyl)-2,2,2-trifluoroethyl)-2-(2,6-dioxopiperidin-3-yl)-4-fluoro-1-oxoisoindoline-5-carboxamide], the DC50 was 100 to 500 nM and the Y entry is recorded as “** (a Y value (shown as**) of 20%<Y≤35%)”.
Take `CC(C)(O)C12CC([C@@H](NC(=O)c3ccc4c(c3)CN(C3CCC(=O)NC3=O)C4=O)C(F)(F)F)(C1)C2` (stereo partly drawn) [Example 165, 2-(2,6-dioxopiperidin-3-yl)-1-oxo-N-((R)-2,2,2-trifluoro-1-(3-(2-hydroxypropan-2-yl)bicyclo[1.1.1]pentan-1-yl)ethyl)isoindoline-5-carboxamide]: the half-maximal degradation concentration (DC50) was below 100 nM and the Y result was “* (a Y value (shown as *) of 0<Y≤20%)”.
As for `O=C1CCC(N2Cc3cc(C(=O)N[C@H](C4CCC5(CC4)CC5)C(F)(F)F)ccc3C2=O)C(=O)N1` (stereo partly drawn) [Example 166, 2-(2,6-dioxopiperidin-3-yl)-1-oxo-N-((1R)-2,2,2-trifluoro-1-(spiro[2.5]octan-6-yl)ethyl)isoindoline-5-carboxamide], the DC50 was below 100 nM and the Y result was “* (a Y value (shown as *) of 0<Y≤20%)”.
On the same counts, the results for `CC(C)[C@H](NC(=O)c1ccc2c(c1)CN(C1CCC(=O)NC1=O)C2=O)c1ccccc1F` (stereo partly drawn) [Example 167, 2-(2,6-dioxopiperidin-3-yl)-N-((S)-1-(2-fluorophenyl)-2-methylpropyl)-1-oxoisoindoline-5-carboxamide] are below 100 nM and “* (a Y value (shown as *) of 0<Y≤20%)”.
For the molecule `C[C@]1(O)CC[C@@H]([C@@H](NC(=O)c2ccc3c(c2)CN(C2CCC(=O)NC2=O)C3=O)C(F)(F)F)CC1` (stereo partly drawn) [Example 168, 2-(2,6-dioxopiperidin-3-yl)-1-oxo-N-((R)-2,2,2-trifluoro-1-((1s,4S)-4-hydroxy-4-methylcyclohexyl)ethyl)isoindoline-5-carboxamide], the DC50 is below 100 nM and the Y entry is “* (a Y value (shown as *) of 0<Y≤20%)”.
As to `CC(C)[C@H](NC(=O)c1ccc2c(c1)CN(C1CCC(=O)NC1=O)C2=O)c1ccccc1Cl` (stereo partly drawn) [Example 169, N-((S)-1-(2-chlorophenyl)-2-methylpropyl)-2-(2,6-dioxopiperidin-3-yl)-1-oxoisoindoline-5-carboxamide], the DC50 is below 100 nM and the Y result is on record as “* (a Y value (shown as *) of 0<Y≤20%)”.
Turning to `CC(C)[C@H](NC(=O)c1ccc2c(c1)CN(C1CCC(=O)NC1=O)C2=O)c1ccc(F)cc1` (stereo partly drawn) [Example 170, 2-(2,6-dioxopiperidin-3-yl)-N-((S)-1-(4-fluorophenyl)-2-methylpropyl)-1-oxoisoindoline-5-carboxamide], the DC50 was below 100 nM and the Y entry is “* (a Y value (shown as *) of 0<Y≤20%)”.
As to `CC(C)[C@@H](NC(=O)c1ccc2c(c1)CN(C1CCC(=O)NC1=O)C2=O)c1ncccc1Cl` (stereo partly drawn) [Example 171, N-((R)-1-(3-chloropyridin-2-yl)-2-methylpropyl)-2-(2,6-dioxopiperidin-3-yl)-1-oxoisoindoline-5-carboxamide], the DC50 lay in the range of 100 to 500 nM and the Y result is on record as “** (a Y value (shown as**) of 20%<Y≤35%)”.
On the same counts, the results for `CC(C)[C@H](NC(=O)c1ccc2c(c1)CN(C1CCC(=O)NC1=O)C2=O)c1ncccc1Cl` (stereo partly drawn) [Example 172, N-((S)-1-(3-chloropyridin-2-yl)-2-methylpropyl)-2-(2,6-dioxopiperidin-3-yl)-1-oxoisoindoline-5-carboxamide] are below 100 nM and “* (a Y value (shown as *) of 0<Y≤20%)”.
On the same counts, the results for `O=C1CC[C@H](N2Cc3cc(C(=O)N[C@H](c4ncccc4Cl)C(F)(F)F)ccc3C2=O)C(=O)N1` [Example 173, N-((R)-1-(3-chloropyridin-2-yl)-2,2,2-trifluoroethyl)-2-((S)-2,6-dioxopiperidin-3-yl)-1-oxoisoindoline-5-carboxamide] are below 100 nM and “* (a Y value (shown as *) of 0<Y≤20%)”.
On to `CC(F)(F)C(NC(=O)c1ccc2c(c1)CN(C1CCC(=O)NC1=O)C2=O)c1ccc(F)cc1` (stereo not drawn) [Example 174, N-(2,2-difluoro-1-(4-fluorophenyl)propyl)-2-(2,6-dioxopiperidin-3-yl)-1-oxoisoindoline-5-carboxamide], for which the 50% degradation concentration (DC50) is below 100 nM and the Y result is recorded as “* (a Y value (shown as *) of 0<Y≤20%)”.
In the case of `O=C1CCC(N2Cc3cc(C(=O)N[C@H](c4ncc(F)cc4Cl)C(F)(F)F)ccc3C2=O)C(=O)N1` (stereo partly drawn) [Example 175, N-((R)-1-(3-chloro-5-fluoropyridin-2-yl)-2,2,2-trifluoroethyl)-2-(2,6-dioxopiperidin-3-yl)-1-oxoisoindoline-5-carboxamide], the DC50 was below 100 nM and the Y entry is recorded as “* (a Y value (shown as *) of 0<Y≤20%)”.
For the molecule `O=C1CCC(N2Cc3cc(C(=O)NC(C4CCC5(CC4)CC(O)C5)C(F)(F)F)ccc3C2=O)C(=O)N1` (stereo not drawn) [Example 176, 2-(2,6-dioxopiperidin-3-yl)-1-oxo-N-(2,2,2-trifluoro-1-(2-hydroxyspiro[3.5]nonan-7-yl)ethyl)isoindoline-5-carboxamide], the DC50 lay in the range of 100 to 500 nM and the Y result was “* (a Y value (shown as *) of 0<Y≤20%)”.
Consider `CC(C)[C@H](NC(=O)c1ccc2c(c1)CN(C1CCC(=O)NC1=O)C2=O)c1ccc(Cl)cc1` (stereo partly drawn) [Example 177, N-((S)-1-(4-chlorophenyl)-2-methylpropyl)-2-(2,6-dioxopiperidin-3-yl)-1-oxoisoindoline-5-carboxamide], for which the DC50 is below 100 nM and the Y result is reported as “* (a Y value (shown as *) of 0<Y≤20%)”.
In the case of `O=C1CCC(N2Cc3c(ccc(C(=O)N[C@H](c4ncc(Cl)cc4Cl)C(F)(F)F)c3F)C2=O)C(=O)N1` (stereo partly drawn) [Example 178, N-((R)-1-(3,5-dichloropyridin-2-yl)-2,2,2-trifluoroethyl)-2-(2,6-dioxopiperidin-3-yl)-4-fluoro-1-oxoisoindoline-5-carboxamide], the half-maximal degradation concentration (DC50) is below 100 nM and the Y result is recorded as “* (a Y value (shown as *) of 0<Y≤20%)”.
Consider `O=C1CCC(N2Cc3cc(C(=O)N[C@H](c4ccc(CN5CC6(COC6)C5)cc4)C(F)(F)F)ccc3C2=O)C(=O)N1` (stereo partly drawn) [Example 179, N-((1R)-1-(4-(2-oxa-6-azaspiro[3.3]heptan-6-ylmethyl)phenyl)-2,2,2-trifluoroethyl)-2-(2,6-dioxopiperidin-3-yl)-1-oxoisoindoline-5-carboxamide], for which the DC50 lay within 100 to 500 nM and the Y result was “* (a Y value (shown as *) of 0<Y≤20%)”.
`O=C1CCC(N2Cc3cc(C(=O)N[C@H](c4ccc(CN5CCCC5)cc4)C(F)(F)F)ccc3C2=O)C(=O)N1` (stereo partly drawn) [Example 180, 2-(2,6-dioxopiperidin-3-yl)-1-oxo-N-((R)-2,2,2-trifluoro-1-(4-(pyrrolidin-1-ylmethyl)phenyl)ethyl)isoindoline-5-carboxamide]: the 50% degradation concentration (DC50) is below 100 nM and the Y result is listed as “* (a Y value (shown as *) of 0<Y≤20%)”.

For the origin of these results see patent publication US11306101B2 (Celgene Corporation, priority 2019, dated 2022).
